Experimental data taken from patent US12091426B2, “Bifunctional degraders of hematopoietic progenitor kinase and therapeutic uses thereof” (Nurix Therapeutics, Inc., priority 2021, dated 2024).

Target: T1, HPK1 (Homo sapiens, UniProt Q92918)
T1 construct: A HiBiT tag was introduced by CRISPR on the N terminus of HPK1 in Jurkat cells; host or cells: Jurkat cells (ATCC TIB-152), monoclonal line with CRISPR knock-in of HiBiT at the endogenous HPK1 locus
Assay: HPK1 Cellular HiBit Degradation Assay
Assay type: cell-based
Conditions: HiBiT HPK1 Jurkat cells, 24 hrs; for DC50: concentration at which 50% of HPK1 was remaining, read-out: DC50 Category; for Dmax: Jurkat, read-out: Dmax Category
Summary of the method: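 Jurkat cells with CRISPR N-terminal HiBiT-tagged endogenous HPK1 treated 24 h at 37 °C with 11-point, 3.16-fold dilutions (10 uM to 0.1 nM final). HiBiT lytic luminescence gives % HPK1 remaining versus DMSO, with parental cells as background. Four-parameter fit yields DC50; Dmax = 100 minus lowest % remaining.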

[1] = maximum degradation vs DMSO vehicle control

T1 sequence (Q92918 whole entry): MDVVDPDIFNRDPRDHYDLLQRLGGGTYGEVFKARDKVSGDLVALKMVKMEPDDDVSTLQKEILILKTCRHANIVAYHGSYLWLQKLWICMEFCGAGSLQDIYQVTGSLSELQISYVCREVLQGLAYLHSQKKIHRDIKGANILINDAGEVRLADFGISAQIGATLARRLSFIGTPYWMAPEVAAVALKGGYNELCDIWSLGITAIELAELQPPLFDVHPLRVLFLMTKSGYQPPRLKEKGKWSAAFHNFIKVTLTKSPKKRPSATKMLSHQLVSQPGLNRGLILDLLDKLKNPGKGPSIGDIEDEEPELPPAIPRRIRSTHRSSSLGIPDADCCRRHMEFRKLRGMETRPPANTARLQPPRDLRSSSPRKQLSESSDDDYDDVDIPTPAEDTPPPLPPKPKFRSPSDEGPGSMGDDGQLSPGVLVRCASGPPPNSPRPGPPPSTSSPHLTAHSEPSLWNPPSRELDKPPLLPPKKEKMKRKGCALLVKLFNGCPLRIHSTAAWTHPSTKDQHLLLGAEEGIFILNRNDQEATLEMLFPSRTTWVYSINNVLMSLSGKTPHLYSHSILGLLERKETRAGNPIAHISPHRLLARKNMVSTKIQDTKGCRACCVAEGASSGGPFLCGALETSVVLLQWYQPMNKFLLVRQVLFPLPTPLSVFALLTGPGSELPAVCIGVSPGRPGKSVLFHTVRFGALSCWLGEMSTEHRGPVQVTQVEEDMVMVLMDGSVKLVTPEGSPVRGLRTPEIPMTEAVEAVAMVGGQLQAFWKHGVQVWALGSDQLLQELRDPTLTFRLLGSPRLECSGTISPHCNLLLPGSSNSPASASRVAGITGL

Row | SMILES | DC50 [nM] | Dmax [1] [%] | Dmax Category [1]
1 | CC(C)n1cnc2cc(-c3ccc4c(c3)N([C@H]3C[C@@H](N5CCCCC5)C3)C(=O)C43CCN(C(=O)C4(C)CCN(C(=O)C5CCN(c6ccc(C7CCC(=O)NC7=O)cn6)CC5)CC4)CC3)nc(N[C@H]3C[C@@H](C#N)C3)c21 (stereo partly drawn) [Example 174, (1S,3S)-3-({6-[1′-(1-{1-[5-(2,6-dioxopiperidin-3-yl)pyridin-2-yl]piperidine-4-carbonyl}-4-methylpiperidine-4-carbonyl)-2-oxo-1-[(1S,3S)-3-(piperidin-1-yl)cyclobutyl]-1,2-dihydrospiro-[indole-3,4′-piperidin]-6-yl]-3-(propan-2-yl)-3H-imidazo[4,5-c]pyridin-4-yl}amino)cyclobutane-1-carbonitrile] | < 100 | > 85 | 
2 | CC(C)n1cnc2cc(-c3ccc4c(c3)N([C@H]3C[C@@H](N5CCCCC5)C3)C(=O)C43CCN(C(=O)C4CCN(C(=O)[C@H]5CC[C@H](Nc6ccc(C7CCC(=O)NC7=O)cc6)CC5)CC4)CC3)nc(Nc3ccncc3F)c21 (mixture of isomers) [Example 55, (3RS)-3-(4-{[(1R,4R)-4-{4-[(6-{4-[(3-Fluoropyridin-4-yl)amino]-3-(propan-2-yl)-3H-imidazo[4,5-c]pyridin-6-yl}-2-oxo-1-[(1S,3S)-3-(piperidin-1-yl)cyclobutyl]-1,2-dihydrospiro[indole-3,4′-piperidin]-1′-yl)carbonyl]piperidine-1-carbonyl}cyclohexyl]amino}phenyl)piperidine-2,6-dione] | 100 to 500 | 50 to 70 | 
3 | CC(C)n1cnc2cc(-c3ccc4c(c3)N(C3CC(N5CCCCC5)C3)C(=O)C43CCN(C(=O)CC4(C)CCN(C(=O)C5CCN(c6ccc(C7CCC(=O)NC7=O)cn6)CC5)CC4)CC3)nc(NC3CC3)c21 (racemic) [Example 149, (3RS)-3-(6-{4-[4-(2-{6-[4-(cyclopropylamino)-3-(propan-2-yl)-3H-imidazo[4,5-c]pyridin-6-yl]-2-oxo-1-[(1S,3S)-3-(piperidin-1-yl)cyclobutyl]-1,2-dihydrospiro[indole-3,4′-piperidin]-1′-yl}-2-oxoethyl)-4-methylpiperidine-1-carbonyl]piperidin-1-yl}pyridin-3-yl)piperidine-2,6-dione] | < 100 |  | B (B: >70%-<85%)
4 | CC(C)n1cnc2cc(-c3ccc4c(c3)N([C@H]3C[C@@H](N5CCCCC5)C3)C(=O)C43CCN(C(=O)C4(C)CCN(C(=O)C5CCN(c6ccc(C7CCC(=O)NC7=O)cc6)CC5)CC4)CC3)nc(NC3CC3)c21 (mixture of isomers) [Example 111, (3RS)-3-(4-{4-[4-({6-[4-(cyclopropylamino)-3-(propan-2-yl)-3H-imidazo[4,5-c]pyridin-6-yl]-2-oxo-1-[(1S,3S)-3-(piperidin-1-yl)cyclobutyl]-1,2-dihydrospiro[indole-3,4′-piperidin]-1′-yl}carbonyl)-4-methylpiperidine-1-carbonyl]piperidin-1-yl}phenyl)piperidine-2,6-dione] | < 100 | 70 to 85 | 
5 | CC(C)n1cnc2cc(-c3ccc4c(c3)N([C@H]3C[C@@H](N5CCCCC5)C3)C(=O)C43CCN(C(=O)C4(C)CCN(C(=O)C5CCN(c6ccc(C7CCC(=O)NC7=O)cn6)CC5)CC4)CC3)nc(NC3CC3)c21 (mixture of isomers) [Example 113, (3RS)-3-(6-{4-[4-({6-[4-(cyclopropylamino)-3-(propan-2-yl)-3H-imidazo[4,5-c]pyridin-6-yl]-2-oxo-1-[(1S,3S)-3-(piperidin-1-yl)cyclobutyl]-1,2-dihydrospiro[indole-3,4′-piperidin]-1′-yl}carbonyl)-4-methylpiperidine-1-carbonyl]piperidin-1-yl}pyridin-3-yl)piperidine-2,6-dione] | < 100 | 70 to 85 | 
6 | CCC1(C(=O)N2CCC3(CC2)C(=O)N([C@H]2C[C@@H](N4CCCCC4)C2)c2cc(-c4cc5ncn(C(C)C)c5c(NC5CC5)n4)ccc23)CCN(C(=O)C2CCN(c3ccc(C4CCC(=O)NC4=O)cn3)CC2)CC1 (mixture of isomers) [Example 255, (3RS)-3-(6-{4-[4-({6-[4-(cyclopropylamino)-3-(propan-2-yl)-3H-imidazo[4,5-c]pyridin-6-yl]-2-oxo-1-[(1S,3S)-3-(piperidin-1-yl)cyclobutyl]-1,2-dihydrospiro[indole-3,4′-piperidin]-1′-yl}carbonyl)-4-ethylpiperidine-1-carbonyl]piperidin-1-yl}pyridin-3-yl)piperidine-2,6-dione] | < 100 | > 85 | 
7 | CC(C)n1cnc2cc(-c3ccc4c(c3)N([C@H]3C[C@@H](N5CCCCC5)C3)C(=O)C43CCN(C(=O)C4(CF)CCN(C(=O)C5CCN(c6ccc(C7CCC(=O)NC7=O)cn6)CC5)CC4)CC3)nc(NC3CC3)c21 (mixture of isomers) [Example 278] | < 100 | > 85 | 
8 | CC(C)n1cnc2cc(-c3ccc4c(c3)N([C@H]3C[C@@H](N5CCCCC5)C3)C(=O)C43CCN(C(=O)c4cc(C(=O)N5CCN(c6ccc7c(c6)C(=O)N(C6CCC(=O)NC6=O)C7=O)CC5)n(C)n4)CC3)nc(Nc3ccccc3F)c21 (mixture of isomers) [Example 146, 2-[(3RS)-2,6-dioxopiperidin-3-yl]-5-(4-{3-[(6-{4-[(2-fluorophenyl)amino]-3-(propan-2-yl)-3H-imidazo[4,5-c]pyridin-6-yl}-2-oxo-1-[(1S,3S)-3-(piperidin-1-yl)cyclobutyl]-1,2-dihydrospiro[indole-3,4′-piperidin]-1′-yl)carbonyl]-1-methyl-1H-pyrazole-5-carbonyl}piperazin-1-yl)-2,3-dihydro-1H-isoindole-1,3-dione] | 100 to 500 | 70 to 85 | 
9 | CC(C)n1cnc2cc(-c3ccc4c(c3)N([C@H]3C[C@@H](N5CCCCC5)C3)C(=O)C43CCN(C(=O)[C@H]4C[C@H]5C[C@@H]4CN5C(=O)C4CCN(c5ccc(C6CCC(=O)NC6=O)cn5)CC4)CC3)nc(NC3CC3)c21 (mixture of isomers) [Example 261, (3RS)-3-(6-{4-[(1R,4S,5S)-5-({6-[4-(cyclopropylamino)-3-(propan-2-yl)-3H-imidazo[4,5-c]pyridin-6-yl]-2-oxo-1-[(1S,3S)-3-(piperidin-1-yl)cyclobutyl]-1,2-dihydrospiro[indole-3,4′-piperidin]-1′-yl}carbonyl)-2-azabicyclo[2.2.1]heptane-2-carbonyl]piperidin-1-yl}pyridin-3-yl)piperidine-2,6-dione] | < 100 | 70 to 85 | 
10 | CC(C)n1cnc2cc(-c3ccc4c(c3)N([C@H]3C[C@@H](N5CCCCC5)C3)C(=O)C43CCN(C(=O)[C@@H]4CCN(C(=O)[C@H]5CC[C@H](N(C)c6ccc(C7CCC(=O)NC7=O)cn6)CC5)C4)CC3)nc(NC3CC3)c21 (mixture of isomers) [Example 126, (3RS)-3-(6-{methyl[(1R,4R)-4-[(3R)-3-({6-[4-(cyclopropylamino)-3-(propan-2-yl)-3H-imidazo[4,5-c]pyridin-6-yl]-2-oxo-1-[(1S,3S)-3-(piperidin-1-yl)cyclobutyl]-1,2-dihydrospiro[indole-3,4′-piperidin]-1′-yl}carbonyl)pyrrolidine-1-carbonyl]cyclohexyl]amino}pyridin-3-yl)piperidine-2,6-dione] | < 100 | > 85 | 
11 | CC(C)n1cnc2cc(-c3ccc4c(c3)N([C@H]3C[C@@H](N5CCCCC5)C3)C(=O)C43CCN(C(=O)[C@@H]4CCN(C(=O)[C@H]5CC[C@H](Nc6ccc(C7CCC(=O)NC7=O)cn6)CC5)C4)CC3)nc(Nc3ccccc3F)c21 (mixture of isomers) [Example 6, (3RS)-3-(6-{1[(1R,4R)-4-[(3R)-3-[(6-{4-[(2-fluorophenyl)amino]-3-(propan-2-yl)-3H-imidazo[4,5-c]pyridin-6-yl}-2-oxo-1-[(1S,3S)-3-(piperidin-1-yl)cyclobutyl]-1,2-dihydrospiro[indole-3,4′-piperidin]-1′-yl)carbonyl]pyrrolidine-1-carbonyl]cyclohexyl]amino}pyridin-3-yl)piperidine-2,6-dione] | 100 to 500 | 70 to 85 | 
12 | CC(C)n1cnc2cc(-c3ccc4c(c3)N([C@H]3C[C@@H](N5CCCCC5)C3)C(=O)C43CCN(C(=O)C4C5CC4CN(C(=O)C4CCN(c6ccc(C7CCC(=O)NC7=O)cn6)CC4)C5)CC3)nc(NC3CC3)c21 (mixture of isomers) [Example 282, (3RS)-3-(6-{4-[6-({6-[4-(cyclopropylamino)-3-(propan-2-yl)-3H-imidazo[4,5-c]pyridin-6-yl]-2-oxo-1-[(1S,3S)-3-(piperidin-1-yl)cyclobutyl]-1,2-dihydrospiro[indole-3,4′-piperidin]-1′-yl}carbonyl)-3-azabicyclo[3.1.1]heptane-3-carbonyl]piperidin-1-yl}pyridin-3-yl)piperidine-2,6-dione] | < 100 | 70 to 85 | 
13 | CC(C)n1cnc2cc(-c3ccc4c(c3)N([C@H]3C[C@@H](N5CCCCC5)C3)C(=O)C43CCN(C(=O)[C@@H]4CCC[C@H](NC(=O)CC5CCN(c6ccc(C7CCC(=O)NC7=O)cn6)CC5)C4)CC3)nc(NC3CC3)c21 (mixture of isomers) [Example 292, N-[(1S,3R)-3-({6-[4-(cyclopropylamino)-3-(propan-2-yl)-3H-imidazo[4,5-c]pyridin-6-yl]-2-oxo-1-[(1s,3s)-3-(piperidin-1-yl)cyclobutyl]-1,2-dihydrospiro[indole-3,4′-piperidin]-1′-yl}carbonyl)cyclohexyl]-2-(1-{5-[(3RS)-2,6-dioxopiperidin-3-yl]pyridin-2-yl}piperidin-4-yl)acetamide] | 100 to 500 | 70 to 85 | 
